Data: patent US5679805A, “Photochromic spironaphthopyran compounds” (Vision-Ease Lens, Inc., priority 1995, dated 1997)

Key:
[1] = fade time T1/2 of chloroform-dissolved photochromic compounds after isolation from ultraviolet light; type: physicochemical; design: key to T1/2 (fade time), footnoted reading: *: Fades too fast to obtain readings; conditions: room temperature (72° F.); for T1/2 (fade time): absorbance of activated form to one half of maximum
Protocol: Additionally, a purchased sample of 3,3-diphenyl-naphtho-3H[2,1-b]pyran, identified as Comparative Example 2, was dissolved in a separate container of chloroform.
Each of the chloroform-dissolved photochromic compounds of Examples 1-3 and Comparative Examples 1-2 were then irradiated with ultraviolet light with a maximum wavelength of 350 nanometers, and the maximum absorption wavelength λmax was determined for each of the chloroform-dissolved photochromic compound. The fade time, T1/2 was then determined for each of the irradiated compounds. The fade time for a particular chloroform dissolved photochromic compound is defined as the time interval, at room temperature (72° F.), for the absorbance of the activated form of the chloroform-dissolved photochromic compound to decrease to one half of the maximum absorbance, after the photochromic compound is isolated from the activating source of ultraviolet light. The maximum absorption wavelength and fade time determined for each of the irradiated photochromic compounds of Examples 1-3 and Comparative Examples 1-2 are presented in Table 1: […]

[2] = cited from earlier work
[3] = maximum absorption wavelength of chloroform-dissolved photochromic compounds irradiated with ultraviolet light; type: physicochemical; conditions: for maximum absorption wavelength λmax: Chloroform, maximum wavelength of 350 nanometers; for maximum wavelength of activation vs Comparative Example 1: compared with Comparative Example 1, 3,3-diphenyl-8-methoxy-3H-naphtho[2,1-b]pyran
[4] = color on activation by ultraviolet light; type: physicochemical
[5] = irradiated with ultraviolet light

Row | T1/2 (fade time) [1] | maximum absorption wavelength λmax [3, 5] | T1/2 (fade time), footnoted reading [1] | maximum wavelength of activation vs Comparative Example 1 [3] | color when activated by ultraviolet light ([4]; activated by ultraviolet light) | color of blend with blue-turning photochromic compounds when activated ([4]; blend with blue-turning photochromic compounds, such as substituted spiroindolino naphthoxazine, ultraviolet radiation) | activated maximum wavelength of absorption ([3]; dissolved in chloroform, irradiated with ultraviolet light) | Structure (SMILES) | photochromic at room temperature [2]
1 | 10 s |  |  |  |  |  |  | COc1ccc2c3c(ccc2c1)OC(c1ccccc1)(c1ccccc1)C=C3 [Comparative Example 1, 3,3-diphenyl-8-methoxy-3H-naphtho[2,1-b]pyran, reference compound] | 
2 | 13 s | 435 |  |  |  |  |  | C1=CC(c2ccccc2)(c2ccccc2)Oc2ccc3ccccc3c21 [Comparative Example 2, 3,3-diphenyl-naphtho-3H[2,1b]pyran, reference compound] | photochromic at room temperature
3 |  | 490 | * | longer maximum wavelength of activation |  |  |  | C1=CC2(Oc3ccc4c5c(ccc4c31)OC1(C=C5)c3ccccc3-c3ccccc31)c1ccccc1-c1ccccc12 [Example 1] | 
4 | 1.9 s | 502 |  | longer maximum wavelength of activation | deep shade of red | intense shade of gray | about 502 nanometers | C1=CC2(Oc3ccc4c5c(ccc4c31)OC1(C=C5)c3ccccc3Sc3ccccc31)c1ccccc1Sc1ccccc12 [Example 2] | 
